Target: human TMEM16A (TMEM16Aabc variant) (Homo sapiens, UniProt Q5XXA6, DEL476-501, form not given)
Assay: Automated whole-cell patch clamp (Qpatch) TMEM16A potentiator assay in FRT cells stably expressing human TMEM16A
Type: cell-based
Conditions: for % Potentiation @ 3.33 μM Avg: 3.33 μM solution of test compound, percentage increase of baseline TMEM16A current; for EC50: calculated EC50, Qpatch TMEM16A current at +70 mV
From the text: FIG. 1 is an example trace from a whole-cell patch clamp (Qpatch) TMEM16A potentiator assay as used in Biological Example 95 and illustrates the methodology used in the assay. In FIG. 1: S is Saline; V is Vehicle; #1 is Test Compound concentration #1; #2 is Test Compound concentration 2; #3 is Test Compound concentration 3; #4 is Test Compound concentration 4; #5 is Test Compound concentration #5; and R is Reference. The arrow in column V represents the baseline current, IBL. The arrows in each of the columns #1, #2, #3, #4, #5 and R represent I#[1], I#[2], I#[3], I#[4], I#[5] and I[Ref], which are the peak currents during the incubation periods for test compounds concentrations #1 to #5 and the Reference.
Fisher rat thyroid (FRT) cells stably expressing human TMEM16A (TMEM16Aabc variant; Dr Luis Galietta, Insituto Giannina, Italy) were cultured in T-75 flasks in Hams F-12 media with Coon's modification (Sigma) supplemented with 10% (v/v) foetal bovine serum, penicillin-streptomycin (10,000 U/mL/10000 μg/mL), G-418 (750 μg/mL), L-glutamine (2 mM) and sodium bicarbonate solution (7.5% v/v). At ˜90% confluence cells were harvested for experiments by detachment with a 2:1 (v/v) mixture of Detachin (BMS Biotechnology) and 0.25% (w/v) trypsin-EDTA. Cells were diluted to a density of 3.5-4.5×10^6 cells/mL with media consisting of CHO-S-SFM II (Sigma), 25 mM HEPES (Sigma) and Soy bean trypsin inhibitor (Sigma).
FRT-TMEM16A cells were whole-cell patch clamped using an automated planar patch clamp system (Qpatch, Sophion). Briefly, once high resistance (GOhm) seals were established between the cells and the planar recording array the patch was ruptured using suction pulses to establish the whole-cell recording configuration of the patch clamp technique. The assay employed the following solutions (all reagents Sigma): Intracellular solution (mM): N-methyl-D-glucamine 130, CaCl2 18.2, MgCl2 1, HEPES 10, EGTA 10, BAPTA 20, Mg-ATP 2, pH 7.25, 325 mOsm with sucrose.
Extracellular solution (mM): N-methyl-D-glucamine 130, CaCl2 2, MgCl2 1, HEPES 10, pH 7.3, 320 mOsm with sucrose.
The intracellular solution buffers intracellular calcium at levels required to give ˜20% activation of the maximal TMEM16A mediated current (EC20 for calcium ions). Cells were voltage clamped at a holding potential of −70 mV and a combined voltage step (to +70 mV)/ramp (−90 my to +90 mV) was applied at 0.05 Hz. After a period of current stabilisation test compounds, solubilised in 100% (v/v) DMSO and subsequently diluted into extracellular solution, were applied to generate a cumulative concentration response curve. Each concentration of test compound was incubated for 5 minutes before addition of the next concentration. After the final concentration was tested a supramaximal concentration of either a known active positive modulator or the TMEM16A inhibitor, CaCCinhA01 (Del La Fuente et al, 2008) was added to define the upper and lower limits of the assay.
Compound activity was quantified by measuring the increase in current upon compound addition and expressing this as a percentage increase of baseline TMEM16A current level. Percentage increases in current were determined for each concentration and the data plotted as a function of concentration using either the Qpatch software or Graphpad Prism v6.05 providing the concentration which gave 50% of its maximal effect (EC50) and maximum efficacy (percentage of baseline increase).
In FIG. 1, IBL equals baseline current, I[#1] equals the peak current during test compound concentration 1 incubation period and so on.
Peak TMEM16A current at +70 mV was plotted as a function of time over the assay period. Baseline current (IBL) was measured after a period of stabilisation. The increase in current for each compound addition was determined by taking the peak current during the incubation period and subtracting the current from the previous recording period and then expressing this as a percentage of the baseline current. […]

Sequence of human TMEM16A (TMEM16Aabc variant) (Q5XXA6 with tags, fused parts or gaps DEL476-501): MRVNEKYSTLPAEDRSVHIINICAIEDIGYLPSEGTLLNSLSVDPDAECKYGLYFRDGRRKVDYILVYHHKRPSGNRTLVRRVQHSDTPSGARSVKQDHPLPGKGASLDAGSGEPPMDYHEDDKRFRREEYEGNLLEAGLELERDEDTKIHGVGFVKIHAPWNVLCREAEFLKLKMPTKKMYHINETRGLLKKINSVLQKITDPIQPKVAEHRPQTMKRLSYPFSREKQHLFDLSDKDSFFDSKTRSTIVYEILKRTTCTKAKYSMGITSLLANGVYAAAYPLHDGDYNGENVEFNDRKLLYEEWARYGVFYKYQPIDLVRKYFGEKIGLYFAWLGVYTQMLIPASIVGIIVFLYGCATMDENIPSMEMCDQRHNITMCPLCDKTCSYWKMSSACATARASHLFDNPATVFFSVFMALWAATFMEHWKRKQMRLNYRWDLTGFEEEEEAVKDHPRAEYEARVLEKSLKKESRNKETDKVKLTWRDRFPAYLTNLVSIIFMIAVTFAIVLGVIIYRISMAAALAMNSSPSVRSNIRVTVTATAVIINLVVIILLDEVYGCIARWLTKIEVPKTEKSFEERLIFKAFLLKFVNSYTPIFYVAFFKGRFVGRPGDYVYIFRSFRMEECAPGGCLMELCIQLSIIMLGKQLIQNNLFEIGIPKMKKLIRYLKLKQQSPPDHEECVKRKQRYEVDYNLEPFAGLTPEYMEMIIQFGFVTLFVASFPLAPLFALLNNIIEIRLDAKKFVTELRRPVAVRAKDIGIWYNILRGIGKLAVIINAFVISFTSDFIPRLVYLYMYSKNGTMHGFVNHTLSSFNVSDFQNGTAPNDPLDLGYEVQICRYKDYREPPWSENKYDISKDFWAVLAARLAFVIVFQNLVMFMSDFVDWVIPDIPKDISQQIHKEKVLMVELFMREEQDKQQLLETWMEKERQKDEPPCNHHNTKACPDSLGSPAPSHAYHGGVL

Compound	% Potentiation @ 3.33 μM Avg	EC50
CC(C)(C)c1ccc(O)c(CC(=O)Nc2ccnc(C(=O)NC3(C#N)CCC3)c2)c1 [Example 3.5a, 4-[[2-(5-tert-Butyl-2-hydroxy-phenyl)acetyl]amino]-N-(1-cyanocyclobutyl)pyridine-2-carboxamide]	311%	500 nM
CC(C)(C)NC(=O)c1cc(NC(=O)Cc2cc(C(F)(F)F)ccc2O)ccn1 [Example 3.5b, N-tert-Butyl-4-[[2-[2-hydroxy-5-(trifluoromethyl)phenyl]acetyl]amino]pyridine-2-carboxamide]	150%	200 nM
CC1(NC(=O)c2cc(NC(=O)Cc3cc(C(C)(C)C)ccc3O)ccn2)CCC1 [Example 3.6a, 4-[[2-(5-tert-Butyl-2-hydroxy-phenyl)acetyl]amino]-N-(1-methylcyclobutyl)pyridine-2-carboxamide]	546%	370 nM
CC(C)(C)NC(=O)c1cc(NC(=O)Cc2ccc(Cl)cc2O)ccn1 [Example 3.6b, N-tert-Butyl-4-[[2-(4-chloro-2-hydroxy-phenyl)acetyl]amino]pyridine-2-carboxamide]	205%	120 nM
CC(C)(C)NC(=O)c1cc(NC(=O)Cc2c(O)c(Br)cc(F)c2Br)ccn1 [Example 3.7a, N-tert-butyl-4-[2-(2,5-dibromo-3-fluoro-6-hydroxyphenyl)acetamido]pyridine-2-carboxamide]	135%	280 nM
CC(C)(C)NC(=O)c1cc(NC(=O)Cc2ccc(C(F)(F)F)cc2O)ccn1 [Example 3.7b, N-tert-Butyl-4-[[2-[2-hydroxy-4-(trifluoromethyl)phenyl]acetyl]amino]pyridine-2-carboxamide]	160%	180 nM
COc1ccc(O)c(CC(=O)Nc2ccnc(C(=O)NC(C)(C)C)c2)c1 [Example 3.8b, N-tert-Butyl-4-[[2-(2-hydroxy-5-methoxy-phenyl)acetyl]amino]pyridine-2-carboxamide]	203%	300 nM
CC(C)(C)NC(=O)c1cc(NC(=O)C2CCc3ccc(O)cc32)ccn1 (stereo not shown) [Example 3.9b, N-tert-Butyl-4-[(6-hydroxyindane-1-carbonyl)amino]pyridine-2-carboxamide]	144%	960 nM
CC(C)(C)NC(=O)c1cc(NC(=O)C2CCc3cccc(O)c32)ccn1 (stereo not shown) [Example 3.10b, N-tert-Butyl-4-[(7-hydroxyindane-1-carbonyl)amino]pyridine-2-carboxamide]	159%	460 nM
CC(C)(C)NC(=O)c1cc(NC(=O)Cc2c(O)c(Br)cc(Cl)c2Br)ccn1 [Example 3.11b, N-tert-Butyl-4-[[2-(2,5-dibromo-3-chloro-6-hydroxy-phenyl)acetyl]amino]pyridine-2-carboxamide]	168%	410 nM
CC(C)(C)NC(=O)c1cc(NC(=O)Cc2cccc(O)c2)ccn1 [Example 3.12b, N-tert-Butyl-4-[[2-(3-hydroxyphenyl)acetyl]amino]pyridine-2-carboxamide]	143%	340 nM
CC(C)(C)NC(=O)c1cc(NC(=O)Cc2cc(O)ccc2F)ccn1 [Example 3.13b, N-tert-butyl-4-[[2-(2-fluoro-5-hydroxy-phenyl)acetyl]amino]pyridine-2-carboxamide]	179%	250 nM
CC(C)(C)NC(=O)c1cc(NC(=O)Cc2ccc(Cl)c(O)c2)ccn1 [Example 3.14b, N-tert-Butyl-4-[[2-(4-chloro-3-hydroxy-phenyl)acetyl]amino]pyridine-2-carboxamide]	251%	40 nM
CC(C)(C)NC(=O)c1cc(NC(=O)Cc2cccc(O)c2Cl)ccn1 [Example 3.15b, N-tert-Butyl-4-[[2-(2-chloro-3-hydroxy-phenyl)acetyl]amino]pyridine-2-carboxamide]	127%	
CC(C)(C)NC(=O)c1cc(NC(=O)Cc2cc(O)ccc2Cl)ccn1 [Example 3.16b, N-tert-Butyl-4-[[2-(2-chloro-5-hydroxy-phenyl)acetyl]amino]pyridine-2-carboxamide]	167%	170 nM
CC(C)(C)NC(=O)c1cc(NC(=O)Cc2cc(O)cc(Cl)c2)ccn1 [Example 3.17b, N-tert-Butyl-4-[[2-(3-chloro-5-hydroxy-phenyl)acetyl]amino]pyridine-2-carboxamide]	227%	120 nM
CC(C)(C)NC(=O)c1cccc(NC(=O)Cc2cccc(O)c2)c1 [Example 4, N-tert-Butyl-3-[[2-[3-hydroxyphenyl]acetyl]amino]benzamide]	96%	1500 nM
CC(C)(C)NC(=O)c1cccc(NC(=O)Cc2n[nH]c3ccccc23)c1 [Example 4.1, N-tert-Butyl-3-[[2-(1H-indazol-3-yl)acetyl]amino]benzamide]	79%	2170 nM
CC(C)(C)NC(=O)c1cccc(NC(=O)Cc2c[nH]c3ccc(F)cc23)c1 [Example 4.2, N-tert-Butyl-3-[[2-(5-fluoro-1H-indol-3-yl)acetyl]amino]benzamide]	116%	660 nM
CC(C)(C)NC(=O)c1cccc(NC(=O)Cc2ccccc2O)c1 [Example 4.3, N-tert-Butyl-3-[[2-(2-hydroxyphenyl)acetyl]amino] benzamide]	151%	1530 nM
Cc1[nH]c2c(F)cccc2c1CC(=O)Nc1cccc(C(=O)NC(C)(C)C)c1 [Example 4.4, N-tert-Butyl-3-[[2-(7-fluoro-2-methyl-1H-indol-3-yl)acetyl]amino]benzamide]	61%	4190 nM
CC(C)(C)NC(=O)c1cccc(NC(=O)Cc2c[nH]c3ccccc23)c1 [Example 4.5, N-tert-Butyl-3-[[2-(1H-indol-3-yl)acetyl]amino]benzamide]	138%	700 nM
CC(C)(C)NC(=O)c1cccc(NC(=O)Cc2ccccc2)c1 [Example 4.6, N-tert-Butyl-3-[(2-phenylacetyl)amino]benzamide]	53%	3860 nM
COc1cccc(F)c1CC(=O)Nc1cccc(C(=O)NC(C)(C)C)c1 [Example 4.7, N-tert-Butyl-3-[[2-(2-fluoro-6-methoxy-phenyl)acetyl]amino]benzamide]	68%	
COc1ccc(F)c(F)c1CC(=O)Nc1cccc(C(=O)NC(C)(C)C)c1 [Example 4.8, N-tert-Butyl-3-[[2-(2,3-difluoro-6-methoxy-phenyl)acetyl]amino]benzamide]	55%	2070 nM
COc1cc(C(F)(F)F)ccc1CC(=O)Nc1cccc(C(=O)NC(C)(C)C)c1 [Example 4.9, N-tert-Butyl-3-[[2-[2-methoxy-4-(trifluoromethyl)phenyl]acetyl]amino]benzamide]	60%	4660 nM
CC(C)(C)NC(=O)c1cc(NC(=O)Cc2cccs2)ccn1 [Example 5, N-tert-Butyl-4-[[2-[2-thienyl]acetyl]amino]pyridine-2-carboxamide]	78%	800 nM
